Laboratory results published in ChEMBL document CHEMBL3137667, “[Drug-induced liver injury; fourteenth updated edition of the bibliographic database of liver injuries and related drugs]” (Gastroenterol Clin Biol, 2004).

How the values were obtained:
[1] = human, serum, 4383 h
[2] = human, serum
[3] = Comments (NB not yet translated). [column 'COMMENTAIRES' in source]; conditions: human
[4] = Proposed mechanism(s) of liver damage. [column 'MEC' in source]; conditions: human
[5] = human
[6] = human; remark: listed apart in the source
[7] = human; remark: listed apart in the source
[8] = human; remark: listed apart in the source
[9] = Presence of at least one case with successful reintroduction. [column 'REINT' in source]; conditions: human
[10] = Highest frequency of acute liver toxicity observed during clinical trials, expressed as a percentage. [column '% AIGUE' in source]; conditions: human
[11] = human; remark: listed apart in the source
[12] = human; remark: listed apart in the source
[13] = Times to onset, minimal and maximal, observed in the indexed observations. [column 'DELAI' in source]; conditions: human
[14] = human; remark: listed apart in the source
[15] = Highest frequency of moderate liver toxicity observed during clinical trials, expressed as a percentage. [column '% BIOL' in source]; conditions: human
[16] = human; remark: listed apart in the source
[17] = human, serum; remark: listed apart in the source
[18] = human; remark: listed apart in the source
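Wherever Hepatotoxicity (association with vascular disease) is given: count of indexed literature references reporting vascular liver injury in humans, e.g. peliosis hepatitis, hepatic veno-occlusive disease or Budd-Chiari syndrome.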
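Wherever Hepatotoxicity (benign tumour) is given: value is a count of indexed literature references citing a benign tumour confirmed by histopathology.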
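Wherever Hepatotoxicity (choleostasis) is given: human cholestatic liver injury, shown by histopathology or by peak ALT or AST elevation over alkaline phosphatase ratio below 2, value counts indexed literature reports.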
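Wherever Hepatotoxicity (chronic liver disease) is given: chronic liver injury confirmed by histopathology or persistently raised serum aminotransferase activity beyond 6 months, value given as the count of indexed literature references.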
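Wherever Hepatotoxicity (cirrhosis) is given: value is a count of indexed literature references reporting cirrhosis confirmed by histopathology.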
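Wherever Hepatotoxicity (cytolytic) is given: human cytolytic liver injury, shown by histopathology or by a ratio above 5 of peak ALT or AST elevation to alkaline phosphatase elevation, value counts indexed references.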
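Wherever Hepatotoxicity (granulomatous hepatitis) is given: value is a count of indexed literature references reporting granulomatous liver disease confirmed by histopathology.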
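Wherever Hepatotoxicity (malignant tumour) is given: malignant tumour confirmed by histopathology, value gives the count of indexed literature references reporting it.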
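Wherever Hepatotoxicity (severe hepatitis) is given: human clinical data: severe hepatitis, meaning potentially life-threatening liver failure or clinically observed cases, the value counts how many indexed literature references report it.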
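Wherever Hepatotoxicity (steatosis) is given: steatosis confirmed by histopathology, value is the count of indexed references.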

CC1=C(CC(=O)O)c2cc(F)ccc2/C1=C\c1ccc([S+](C)[O-])cc1 (configuration not stated)
Hepatotoxicity (chronic liver disease) [1]: 0 | Hepatotoxicity (acute) [2]: 29 | Hepatotoxicity (comment) [3]: LITHIASE CHOLESTASE_PROLONGEE CHOLANGITE | Hepatotoxicity (mechanism) [4]: Allergic | Hepatotoxicity (granulomatous hepatitis) [5]: 0 | Hepatotoxicity (steatosis) [6]: 4 | Hepatotoxicity (association with vascular disease) [7]: 0 | Hepatotoxicity (severe hepatitis) [8]: 3 | Hepatotoxicity (successful reintroduction) [9]: yes | Hepatotoxicity (acute) [10]: 0.2% | Hepatotoxicity (cytolytic) [11]: 12 | Hepatotoxicity (choleostasis) [12]: 22 | Hepatotoxicity (time to onset) [13]: 1 day - 1.5 years | Hepatotoxicity (malignant tumour) [14]: 0 | Hepatotoxicity (moderate) [15]: 14.9% | Hepatotoxicity (benign tumour) [16]: 0 | Hepatotoxicity (moderate) [17]: 25 | Hepatotoxicity (cirrhosis) [18]: 0

CC(=O)OCC1=C(C(=O)O)N2C(=O)[C@@H](NC(=O)CSc3ccncc3)[C@H]2SC1 [CEPHAPIRIN]
Hepatotoxicity (chronic liver disease) [1]: 0 | Hepatotoxicity (acute) [2]: 1 | Hepatotoxicity (comment) [3]: RC/CEFALOTINE | Hepatotoxicity (mechanism) [4]: Allergic | Hepatotoxicity (granulomatous hepatitis) [5]: 0 | Hepatotoxicity (steatosis) [6]: 0 | Hepatotoxicity (association with vascular disease) [7]: 0 | Hepatotoxicity (severe hepatitis) [8]: 0 | Hepatotoxicity (successful reintroduction) [9]: yes | Hepatotoxicity (acute) [10]: 0% | Hepatotoxicity (cytolytic) [11]: 0 | Hepatotoxicity (choleostasis) [12]: 1 | Hepatotoxicity (time to onset) [13]: 1 week | Hepatotoxicity (malignant tumour) [14]: 0 | Hepatotoxicity (moderate) [15]: 0% | Hepatotoxicity (benign tumour) [16]: 0 | Hepatotoxicity (moderate) [17]: 0 | Hepatotoxicity (cirrhosis) [18]: 0

INTERFERON BETA
Hepatotoxicity (chronic liver disease) [1]: 0 | Hepatotoxicity (acute) [2]: 10 | Hepatotoxicity (comment) [3]: AC_ANTI-N/-ML | Hepatotoxicity (mechanism) [4]: Allergic, Dose-dependant | Hepatotoxicity (granulomatous hepatitis) [5]: 0 | Hepatotoxicity (steatosis) [6]: 0 | Hepatotoxicity (association with vascular disease) [7]: 0 | Hepatotoxicity (severe hepatitis) [8]: 1 | Hepatotoxicity (successful reintroduction) [9]: yes | Hepatotoxicity (acute) [10]: 31.2% | Hepatotoxicity (cytolytic) [11]: 5 | Hepatotoxicity (choleostasis) [12]: 0 | Hepatotoxicity (time to onset) [13]: 3 days - 2 years | Hepatotoxicity (malignant tumour) [14]: 0 | Hepatotoxicity (moderate) [15]: 100% | Hepatotoxicity (benign tumour) [16]: 0 | Hepatotoxicity (moderate) [17]: 33 | Hepatotoxicity (cirrhosis) [18]: 0

NNc1nncc2ccccc12 [HYDRALAZINE]
Hepatotoxicity (chronic liver disease) [1]: 3 | Hepatotoxicity (acute) [2]: 9 | Hepatotoxicity (comment) [3]: CHOLANGITE AC_ANTI-N | Hepatotoxicity (mechanism) ([4]; Liver): Allergic, Toxic | Hepatotoxicity (granulomatous hepatitis) ([5]; Liver): 6 | Hepatotoxicity (steatosis) [6]: 0 | Hepatotoxicity (association with vascular disease) [7]: 0 | Hepatotoxicity (severe hepatitis) ([8]; Liver): 2 | Hepatotoxicity (successful reintroduction) [9]: yes | Hepatotoxicity (acute) ([10]; Liver): 0% | Hepatotoxicity (cytolytic) ([11]; Liver): 6 | Hepatotoxicity (choleostasis) ([12]; Liver): 3 | Hepatotoxicity (time to onset) [13]: 2 days - 3 years | Hepatotoxicity (malignant tumour) [14]: 0 | Hepatotoxicity (moderate) ([15]; Liver): 0% | Hepatotoxicity (benign tumour) [16]: 0 | Hepatotoxicity (moderate) [17]: 4 | Hepatotoxicity (cirrhosis) [18]: 0

Nc1ccn([C@@H]2O[C@H](CO)[C@@H](O)[C@@H]2O)c(=O)n1 [CYTARABINE]
Hepatotoxicity (chronic liver disease) [1]: 0 | Hepatotoxicity (acute) [2]: 14 | Hepatotoxicity (comment) [3]: HCF HNR REACTIVATION_HVB MVO | Hepatotoxicity (mechanism) ([4]; Liver): Dose-dependant | Hepatotoxicity (granulomatous hepatitis) ([5]; Liver): 0 | Hepatotoxicity (steatosis) [6]: 0 | Hepatotoxicity (association with vascular disease) [7]: 7 | Hepatotoxicity (severe hepatitis) ([8]; Liver): 6 | Hepatotoxicity (successful reintroduction) [9]: yes | Hepatotoxicity (acute) ([10]; Liver): 28.6% | Hepatotoxicity (cytolytic) ([11]; Liver): 6 | Hepatotoxicity (choleostasis) ([12]; Liver): 3 | Hepatotoxicity (time to onset) [13]: 1 cure - 2 cures | Hepatotoxicity (malignant tumour) [14]: 0 | Hepatotoxicity (moderate) ([15]; Liver): 75% | Hepatotoxicity (benign tumour) [16]: 0 | Hepatotoxicity (moderate) [17]: 33 | Hepatotoxicity (cirrhosis) [18]: 0

CN1C(=O)CN=C(c2ccccc2)c2cc(Cl)ccc21 [DIAZEPAM]
Hepatotoxicity (chronic liver disease) [1]: 0 | Hepatotoxicity (acute) [2]: 12 | Hepatotoxicity (comment) [3]: AC_ANTI-N/-M #CBP | Hepatotoxicity (mechanism) [4]: Allergic | Hepatotoxicity (granulomatous hepatitis) [5]: 1 | Hepatotoxicity (steatosis) [6]: 0 | Hepatotoxicity (association with vascular disease) [7]: 0 | Hepatotoxicity (severe hepatitis) [8]: 1 | Hepatotoxicity (successful reintroduction) [9]: yes | Hepatotoxicity (acute) [10]: 0% | Hepatotoxicity (cytolytic) [11]: 3 | Hepatotoxicity (choleostasis) [12]: 9 | Hepatotoxicity (time to onset) [13]: 2 days - 9 years | Hepatotoxicity (malignant tumour) [14]: 0 | Hepatotoxicity (moderate) [15]: 7.1% | Hepatotoxicity (benign tumour) [16]: 0 | Hepatotoxicity (moderate) [17]: 1 | Hepatotoxicity (cirrhosis) [18]: 0

C=C[C@H]1C[N@@]2CC[C@H]1C[C@@H]2[C@@H](O)c1ccnc2ccc(OC)cc12 [QUINIDINE]
Hepatotoxicity (chronic liver disease) [1]: 1 | Hepatotoxicity (comment) [3]: RC/PRAJMALINE | Hepatotoxicity (mechanism) [4]: Allergic | Hepatotoxicity (granulomatous hepatitis) [5]: 11 | Hepatotoxicity (steatosis) [6]: 0 | Hepatotoxicity (association with vascular disease) [7]: 0 | Hepatotoxicity (severe hepatitis) ([8]; Liver): 2 | Hepatotoxicity (successful reintroduction) [9]: yes | Hepatotoxicity (cytolytic) [11]: 12 | Hepatotoxicity (choleostasis) [12]: 12 | Hepatotoxicity (time to onset) [13]: 1 day - 7 months | Hepatotoxicity (malignant tumour) [14]: 0 | Hepatotoxicity (moderate) ([15]; Liver): 2% | Hepatotoxicity (benign tumour) [16]: 0 | Hepatotoxicity (moderate) [17]: 5 | Hepatotoxicity (cirrhosis) [18]: 0

COc1cc(Cc2cnc(N)nc2N)cc(OC)c1OC.Cc1cc(NS(=O)(=O)c2ccc(N)cc2)no1 [CO-TRIMOXAZOLE]
Hepatotoxicity (chronic liver disease) [1]: 3 | Hepatotoxicity (comment) [3]: RC/CEFADROXIL/SULFASALAZINE #CBP AC_ANTI-ML | Hepatotoxicity (mechanism) ([4]; Liver): Allergic, Dose-dependant, Toxic Metabolite | Hepatotoxicity (granulomatous hepatitis) ([5]; Liver): 1 | Hepatotoxicity (steatosis) [6]: 1 | Hepatotoxicity (association with vascular disease) [7]: 0 | Hepatotoxicity (severe hepatitis) ([8]; Liver): 11 | Hepatotoxicity (successful reintroduction) [9]: yes | Hepatotoxicity (cytolytic) ([11]; Liver): 17 | Hepatotoxicity (choleostasis) ([12]; Liver): 35 | Hepatotoxicity (time to onset) [13]: 2 hours - 2 months | Hepatotoxicity (malignant tumour) [14]: 0 | Hepatotoxicity (moderate) ([15]; Liver): 53.8% | Hepatotoxicity (benign tumour) [16]: 0 | Hepatotoxicity (moderate) [17]: 46 | Hepatotoxicity (cirrhosis) [18]: 0

O=C(CCCN1CCC(O)(c2ccc(Cl)cc2)CC1)c1ccc(F)cc1 [HALOPERIDOL]
Hepatotoxicity (chronic liver disease) [1]: 1 | Hepatotoxicity (comment) [3]: RC/FLUPHENAZINE CHOLESTASE_PROLONGEE #CBP | Hepatotoxicity (mechanism) [4]: Allergic | Hepatotoxicity (granulomatous hepatitis) [5]: 0 | Hepatotoxicity (steatosis) [6]: 0 | Hepatotoxicity (association with vascular disease) [7]: 0 | Hepatotoxicity (severe hepatitis) [8]: 0 | Hepatotoxicity (successful reintroduction) [9]: yes | Hepatotoxicity (acute) [10]: 0.8% | Hepatotoxicity (cytolytic) [11]: 4 | Hepatotoxicity (choleostasis) [12]: 8 | Hepatotoxicity (time to onset) [13]: 2 weeks - 5 months | Hepatotoxicity (malignant tumour) [14]: 0 | Hepatotoxicity (moderate) [15]: 35.1% | Hepatotoxicity (benign tumour) [16]: 0 | Hepatotoxicity (moderate) [17]: 12 | Hepatotoxicity (cirrhosis) [18]: 0
